According to PMC10461229 (Journal of Medicinal Chemistry, 2023):
Read-outs that look alike come from different tables or passages of the source.

Columns and labels:
[1] = system: wild-type (WT) Mtb Erdman; assay: microbe, parasite or virus in culture; assay type: cell-based, Mycobacterium tuberculosis; conditions: read-out: MABA mean IC50 ± SD
CYP3A4 = biological target: T1, CYP3A4 (Homo sapiens, UniProt P08684); assay: CYP3A4 inhibition in human liver microsomes; assay type: in vitro ADME; conditions: HLM
T1 construct: from tissue; host or cells: human liver microsomes
T1 sequence (P08684 whole entry): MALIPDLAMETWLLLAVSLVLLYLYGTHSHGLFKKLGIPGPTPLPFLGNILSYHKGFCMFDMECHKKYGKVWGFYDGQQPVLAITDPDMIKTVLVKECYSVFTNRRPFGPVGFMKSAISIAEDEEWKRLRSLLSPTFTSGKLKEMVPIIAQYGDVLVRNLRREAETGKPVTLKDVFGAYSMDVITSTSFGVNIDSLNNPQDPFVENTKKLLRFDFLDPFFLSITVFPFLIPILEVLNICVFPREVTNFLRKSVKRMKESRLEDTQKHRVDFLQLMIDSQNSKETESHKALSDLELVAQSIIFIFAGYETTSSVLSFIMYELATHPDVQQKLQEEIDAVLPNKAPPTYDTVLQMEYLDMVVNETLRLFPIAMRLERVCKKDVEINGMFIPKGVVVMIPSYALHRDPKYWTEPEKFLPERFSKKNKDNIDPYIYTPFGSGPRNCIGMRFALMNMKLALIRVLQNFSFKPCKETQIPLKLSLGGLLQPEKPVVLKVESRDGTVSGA

in vitro = conditions: human, Caco-2, pH 7.4
CYP2C9 = CYP2C9 (Homo sapiens, UniProt P11712); assay: CYP2C9 inhibition in human liver microsomes; conditions: for % 4 OH-diclofenac activity: HLM
CYP2C9, sequence (P11712 whole entry): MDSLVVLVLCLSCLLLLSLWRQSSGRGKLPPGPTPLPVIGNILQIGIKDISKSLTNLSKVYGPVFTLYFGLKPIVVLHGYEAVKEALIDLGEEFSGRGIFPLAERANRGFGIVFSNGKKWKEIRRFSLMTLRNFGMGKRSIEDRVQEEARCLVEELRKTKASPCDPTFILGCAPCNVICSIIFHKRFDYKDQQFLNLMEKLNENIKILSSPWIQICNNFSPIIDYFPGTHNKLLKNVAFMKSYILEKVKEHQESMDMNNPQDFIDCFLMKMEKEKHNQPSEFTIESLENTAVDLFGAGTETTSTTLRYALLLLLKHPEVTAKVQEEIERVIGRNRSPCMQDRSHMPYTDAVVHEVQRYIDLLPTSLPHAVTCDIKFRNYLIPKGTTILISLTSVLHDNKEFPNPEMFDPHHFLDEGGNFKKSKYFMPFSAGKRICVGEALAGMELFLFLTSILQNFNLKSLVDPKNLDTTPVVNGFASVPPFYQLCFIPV

Mtb biofilm formation = assay: microbe, parasite or virus in culture; assay type: cell-based; conditions: Mycobacterium tuberculosis, 504 h, read-out: Biofilm inhibition IC50
Mtb katG^FS = assay type: cell-based, Mycobacterium tuberculosis
[2] = system: H37Rv-GFP Mtb in murine RAW 264.7 macrophages; assay type: cell-based, Mycobacterium tuberculosis
[3] = system: murine RAW 264.7 macrophages; assay: Cytotoxicity assay on murine macrophages; assay type: cell-based, mouse; conditions: 5 days, total cell number vs DMSO 1%
Protocol: Mouse macrophage RAW 264.7 cells (ATCC # TIB-71) were maintained in RPMI-1640 + GlutaMAX containing 10% heat-inactivated fetal bovine serum (FBS, 10270106, Gibco). Macrophages were harvested using Versene (15040033, LifeTechnologies).
For assay plate preparation, the lead compounds were diluted in DMSO (Sigma-Aldrich) to 10 mg/mL and dispensed in Echo-qualified 384-well low dead volume source plates using the Echo 550 Series Liquid Handler (Labcyte). The compounds were transferred to 384-well clear-bottom polystyrene assay plates (781091, Greiner Bio-One) using acoustic liquid handling technology. All samples were backfilled with DMSO.
The cellular suspension (50 μL containing 20,000 cells) was added to the 384-well assay plate and incubated for 5 days at 37 °C, 5% CO2. Macrophages were then stained with SYTO 60 dye (S11342, Molecular probes), followed by image acquisition and data analysis. Confocal images were recorded on an automated high-content fluorescence microscope (InCell 6500, Cytiva). A series of four pictures of each well were taken, and each image was then analyzed using the Columbus system to infer the total number of cells. Dose–response plots were generated for each compound using GraphPad Prism software.

Mtb Erdman = assay type: cell-based, Mycobacterium tuberculosis
Calu-3 cells = conditions: for Calu-3 LD50: 72 h, CellTiter-Glo, 50% decrease in cellular ATP, IMD salts; for Therapeutic index, LD50 in Calu-3 / MABA IC50: 72 h treatment, CTG assay
BEAS-2B = conditions: for BEAS-2B LD50: 48 h, MTT; for Therapeutic index, LD50 in BEAS-2B / MABA IC50: 48 h treatment, MTT assay
IMR-90 = conditions: for IMR-90 LD50: 48 h, MTT
HEK 293 = conditions: for HEK 293 LD50: 48 h, MTT; for Therapeutic index, LD50 in HEK 293 / MABA IC50: 48 h treatment, MTT assay
Caco-2 cells = conditions: membrane integrity control, 5 μM; cited from earlier work
[4] = Mycobacterium tuberculosis, ERDMAN

| Structure (SMILES) | IC50 [1, 4] | IC50 [1] | % 1OH-midazolam activity (CYP3A4; 1 μM compound) | % 6OH-testosterone activity (CYP3A4; 1 μM compound) | % 1OH-midazolam activity (CYP3A4; 10 μM compound) | % 6OH-testosterone activity (CYP3A4; 10 μM compound) | % 1OH-midazolam activity (CYP3A4; 100 μM compound) | % 6OH-testosterone activity (CYP3A4; 100 μM compound) | IC50 (CYP2C9) | % 4 OH-diclofenac activity (CYP2C9; 1 μM compound) | % 4 OH-diclofenac activity (CYP2C9; 10 μM compound) | % 4 OH-diclofenac activity (CYP2C9; 100 μM compound) | IC50 (Mtb biofilm formation) | Mtb katG^FS CFU after 13 days, combination with INH (Mtb katG^FS) | Mtb katG^FS CFU after 13 days, compound alone vs control (Mtb katG^FS) | cytotoxicity for uninfected murine RAW 264.7 macrophages [3] | Calu-3 LD50 (Calu-3 cells) | Therapeutic index, LD50 in Calu-3 / MABA IC50 (Calu-3 cells) | BEAS-2B LD50 (BEAS-2B) | Therapeutic index, LD50 in BEAS-2B / MABA IC50 (BEAS-2B) | further results |
| --- | --- | --- | --- | --- | --- | --- | --- | --- | --- | --- | --- | --- | --- | --- | --- | --- | --- | --- | --- | --- | --- |
| CC(C)(C)c1ccc(-c2nnc(SCc3cc(=O)n4c(c3C3CC3)SCC4C(=O)O)o2)cc1 (racemic) [Compound 8f, (±) 7-(((5-(4-(tert-Butyl)phenyl)-1,3,4-oxadiazol-2-yl)thio)methyl)-8-cyclopropyl-5-oxo-2,3-dihydro-5H-thiazolo[3,2-a]pyridine-3-carboxylic Acid] | 6.2 µM | 6.19 ± 0.67 µM | 108 ± 4.1% | 98 ± 4.0% | 117 ± 1.4% | 94 ± 5.8% | 84 ± 5.0% | 60 ± 1.9% | 10 to 100 µM | 100 ± 2.7% | 93 ± 6.7% | 31 ± 3.6% | – | – | – | – | – | – | – | – | Papp A→B (in vitro): 3.3 ×10⁻⁶ cm/s |
| CC(C)(C)c1ccc(-n2cc(-c3cc(=O)n4c(c3C3CC3)SCC4C(=O)O)nn2)cc1 (racemic) [Compound 15d, (±) 7-(1-(4-(tert-Butyl)phenyl)-1H-1,2,3-triazol-4-yl)-8-cyclopropyl-5-oxo-2,3-dihydro-5H-thiazolo[3,2-a]pyridine-3-carboxylic Acid] | 5.67 ± 0.82 µM | – | 102 ± 1.4% | 105 ± 1.0% | 95 ± 2.7% | 101 ± 3.9% | 67 ± 1.5% | 75 ± 1.9% | 1 to 10 µM | 83 ± 4.6% | 32.9 ± 1.0% | 2.61 ± 0.29% | – | – | – | – | – | – | – | – | Papp A→B at 2 µM (in vitro): 0.88 ×10⁻⁶ cm/s |
| O=C(O)C1CSc2c(C3CC3)c(-c3cc(-c4ccc5ccccc5c4)no3)cc(=O)n21 (racemic) [Compound 17h, (±) 8-Cyclopropyl-7-(3-(naphthalen-2-yl)isoxazol-5-yl)-5-oxo-2,3-dihydro-5H-thiazolo[3,2-a]pyridine-3-carboxylic Acid] | 0.703 µM | 0.7 ± 0.05 µM | – | – | – | – | – | – | – | – | – | – | 3.47 ± 1.21 µM | below the input dose | no difference in CFU | not cytotoxic | >250 µM | >355 | 143.1 µM | 203.5 | inhibition of intracellular Mtb replication in macrophages [2]: inhibited intracellular mycobacteria at concentrations lower than C10; inhibition of OD600 of Mtb cultures in the presence of tyloxapol (Mtb Erdman): neither 17h nor 17j inhibited the OD600 of Mtb cultures; IMR-90 LD50 (IMR-90): 122.5 µM; HEK 293 LD50 (HEK 293): 101.6 µM; Therapeutic index, LD50 in HEK 293 / MABA IC50 (HEK 293): 144.5 |
| O=C(O)C1CSc2c(C3CC3)c(Cc3cccc4ccccc34)cc(=O)n21 (centres unmarked) [Compound C10, reference compound] | 14.4 µM | 14.4 µM | – | – | – | – | – | – | – | – | – | – | 8.28 ± 3.23 µM | did not inhibit the survival of Mtb katG^FS beyond the effect of INH alone | no difference in CFU | not cytotoxic | 160.4 µM | 11.1 | 146.2 µM | 10.1 | IMR-90 LD50 (IMR-90): 147.1 µM; Therapeutic index, LD50 in IMR-90 / MABA IC50 (IMR-90; 48 h treatment, MTT assay): 10.1; HEK 293 LD50 (HEK 293): 151.7 µM; Therapeutic index, LD50 in HEK 293 / MABA IC50 (HEK 293): 10.5 |
| NNC(=O)c1ccncc1 [INH, isoniazid] | – | – | – | – | – | – | – | – | – | – | – | – | – | – | – | – | – | – | – | – | surviving Mtb katG^FS after 13 days of treatment (Mtb katG^FS): 8.09 × 10^8 CFU/mL |
| C[C@H](N[C@@H](CCc1ccccc1)C(=O)O)C(=O)N1CCC[C@H]1C(=O)O [enalaprilat] | – | – | – | – | – | – | – | – | – | – | – | – | – | – | – | – | – | – | – | – | Papp of enalaprilat for a tight monolayer (Caco-2 cells): < 1 × 10^–6 cm/s |
